The results in this text go back to US20190359653A1, “SELECTIVE PEPTIDE INHIBITORS OF FRIZZLED” (Genentech, Inc., priority 2016, published 2019).

One experiment relates to FZD CRD-Fc. Description: binding of 5FAM peptides to the FZD CRD-Fc panel. How it is done: Control experiments using 5FAM-Fz7-21S were performed in parallel. 5FAM-Fz7-21 or 5FAM-Fz721S was incubated with each of the aforementioned FZD CRD-Fcs overnight at 4° C. in PBS and resolved via SEC.
In FIGS. 3A-3I, 5FAM-Fz7-21 or 5FAM-Fz7-21S (50 nM in PBS) was incubated with increasing concentration of FZD CRD-Fc (2-fold serial dilutions), and fluorescence intensity was measured using either a Monolith NT.115 or NT.115Pico instrument (NanoTemper Technologies). EC50 values represent the 95% confidence interval of at least three independent experiments, excepting hFZD1 CRD-Fc+5FAM-Fz7-21S, which was done twice. EC50 ovalues were calculated with Prism Graphpad using the Log(agonist) vs. response [variable slope (four parameters) function: Y=Bottom+(Top-Bottom)/(1+10^((Log EC−X)*HillSlope))]. Plotted values represent the mean±s.e.m.

For experiment [1], the system named is human sFRP1, sFRP2, sFRP3, sFRP4, or sFRP5. Put plainly: FSEC with secreted Frizzled-related proteins. Type of experiment: binding. Particulars: sFRP ~250 nM, peptide 10 μM. How it is done:
(§1) Fluorescence size-exclusion chromatography (FSEC) experiments were run using an AKTA FPLC system (General Electric Company) with UNICORN software package (version 5.31). Samples were resolved using a SEC3000 or SEC2000 (Phenomenex; Torrence, Calif.) column at 0.5 mL/min in phosphate buffer. Fluorescence was monitored using a FP-2020 Plus fluorescence detector (Jasco Analytical Instruments, Easton, Md.) in normal mode (excitation/emission, […]; gain=100; STD=32). All samples were prepared with a final DMSO concentration of 1% and incubated overnight at 4° C. prior to sample separation. FZD CRD-Fc samples were kept at ˜250 nM in the presence of excess 5FAM labeled peptide (1 μM). Human secreted Frizzled-related proteins were maintained at ˜250 nM in the presence of excess 5FAM-labeled peptide (10 μM). […]
For FIGS. 4C and 5C, values represent the mean±s.e.m. of three independent experiments. […] Samples were resolved using a SEC3000 column (Phenomenex; Torrence, Calif.) at 0.5 mL/min in phosphate buffer saline (PBS) and fluorescence was monitored with an FP-2020 Plus fluorescence detector (Jasco Analytical Instruments, Easton, Md.) using normal mode (excitation/emission […]); gain=100; STD=32. […] Molecular weights were determined by standards (BioRad catalogue number, 151-1901) run prior to sample runs.

A further experiment has as its system FZD CRD-Fc proteins. Description: fluorescence size-exclusion chromatography (FSEC) with FZD CRD-Fc proteins. Type of experiment: binding. Particulars: 1 μM peptide, 250 nM FZD CRD-Fc, overnight at 4° C.; FZD1, FZD2 and FZD7 CRD-Fc. The protocol: as §1, with “μM).” for “μM). Human secreted Frizzled-related proteins were maintained at ˜250 nM in the presence of excess 5FAM-labeled peptide (10 μM).”
Selective targeting of the FZD7 receptor subclass was also observed chromatographically. […] See FIGS. 4A and 4B, which provide representative fluorescence traces of 1 μM 5FAM-Fz7-21 and 1 μM 5FAM-Fz7-21S, respectively, incubated with various FZD CRD-Fc proteins (250 nM) overnight at 4° C. prior to analysis by FSEC. […] In FIG. 24A, molecular weight (MW) standards analyzed by UV absorption were plotted as a function of elution volume (Ve) over void volume (Vo). […] Measured values represent the mean±standard deviation (SD) of three independent experiments. […] Binding to recombinant FZD3 and 6 CRDs could not be assessed due to challenges with the expression of these proteins. […]
(In general: In gel filtration, larger molecules generally elute earlier.)

The test system of experiment [2] is FZD7, FZD4, 5 or 6 receptors stably expressed in HEK293 cells. Description: flow cytometry of cells stably expressing gD-FZD. Type of experiment: binding. Particulars: peptide 12.5 μM. The protocol:
Cell lines stably expressing gD-FZD were grown to ˜80% confluence in DMEM:F12 (50:50) media supplemented with 10% FBS (cat. no. 1500-100; Seradigm), 1× GlutMAX (cat. no. 35050-061; Gibco) and G418 (200 μg/mL; cat. no. A1720; Sigma), released with 0.05% trypsin/EDTA in PBS (cat. no. 15400-054; Gibco), collected on ice and buffer exchanged into ice cold FACS buffer (0.5% BSA and 0.05% NaAz in PBS). 100,000 cells/well were plated into an ice cold U-bottomed plate (cat. no. 3799; Costar) and cells pelleted by centrifugation at 1200 rpm for 3 min. […] Data was collected with FACSDiva (BD; version 8.0.1) and analyzed using FLowJo (FlowJo, LLC; v10.1).
Selective targeting of the FZD7 receptor subclass was also observed chromatographically. […] See FIGS. 4A and 4B, which provide representative fluorescence traces of 1 μM 5FAM-Fz7-21 and 1 μM 5FAM-Fz7-21S, respectively, incubated with various FZD CRD-Fc proteins (250 nM) overnight at 4° C. prior to analysis by FSEC. […] In FIG. 24A, molecular weight (MW) standards analyzed by UV absorption were plotted as a function of elution volume (Ve) over void volume (Vo). […] Measured values represent the mean±standard deviation (SD) of three independent experiments. […] Binding to recombinant FZD3 and 6 CRDs could not be assessed due to challenges with the expression of these proteins.
A general note: A flow cytometer gives signals particle by particle.

SMILES strings stand for the structures. Peptide text beside a SMILES is read from it. * marks the point of attachment. 5FAM = O=C1OC2(c3ccc(O)cc3Oc3cc(O)ccc32)c2ccc(C(=O)*)cc21

Consider `CSCC[C@H](NC(=O)[C@@H](NC(=O)[C@H](Cc1c[nH]cn1)NC(=O)[C@H](CS)NC(=O)[C@H](Cc1c[nH]c2ccccc12)NC(=O)[C@H](Cc1ccccc1)NC(=O)[C@H](CCC(=O)O)NC(=O)[C@H](CC(C)C)NC(=O)[C@H](CC(=O)O)NC(=O)[C@H](CC(=O)O)NC(=O)[C@H](CO)NC(=O)[C@@H]1CCCN1C(=O)[C@H](CC(C)C)NC(=O)c1ccc2c(c1)C(=O)OC21c2ccc(O)cc2Oc2cc(O)ccc21)C(C)C)C(=O)N[C@@H](Cc1ccc(O)cc1)C(N)=O` [5FAM-Fz7-21] (5FAM-LPSDDLEFWCHVMY-NH2; N-terminus and C-terminus assumed), for which, in the experiment on FZD CRD-Fc (FZD5, FZD8, FZD9 and FZD10 CRDs), the “binding” value is “little to no binding”. For the same compound, the EC50 on FZD CRD-Fc (hFZD1 CRD-Fc, hFZD2 CRD-Fc, hFZD7 CRD-Fc, and mFZD7 CRD-Fc, read-out: affinities) lay in the range of 39 to 116 nM. In addition, in experiment [1], the “binding to sFRPs by FSEC” value is listed as “not found to bind”. In addition, the “complex with FZD CRD-Fc resolved by FSEC” value with FZD CRD-Fc proteins is listed as “could be resolved”. Also, the “binding by flow cytometry analysis” value in experiment [2] is recorded as “predominant binding to FZD7 with minimal binding to FZD4, 5 or 6 receptors”.
